In experiment [1] the test system is HIF mediated transcription. Nature of the experiment: Inhibition of activation of HIF mediated transcription under hypoxic conditions (CellSensor HRE-bla HCT-116 reporter, DFO-induced). The experiment is classed as cell-based. Conditions: Homo sapiens; HRE-bla HCT-116 reporter cells, deferoxamine-induced hypoxia, 24 h. As for the experimental part:
Inhibition of an activated HIF signaling response under chemically-induced hypoxic conditions due to compound treatment was determined using the CellSensor® […] HCT-116 stably transfected reporter cell line from Invitrogen according to the manufacturer's instructions. HIF is a transcriptional factor composed of the constitutively expressed HIF 1β subunit and one of three HIFα subunits (HIF1α, HIF2α, HIF3α). This assay is responsive towards HIFα activity in general. In one example, HIF-1, when stabilized by hypoxic conditions, upregulates several genes to promote cell survival in low-oxygen conditions. These include glycolysis enzymes, which allow ATP synthesis in an oxygen-independent manner, and vascular endothelial growth factor (VEGF), which promotes angiogenesis. HIF-1 acts by binding to HIF-responsive elements (HREs) in promoters that generally contain the sequence NCGTG.
Cells were maintained as described previously and seeded into 384-well, clear-bottom plates (Corning 3712) at 15000 cells/well in 32 μl assay medium (Opti-MEM [Invitrogen], 0.5% FBS, 100 U/ml penicillin, 100 μg/ml streptomycin, 0.1 mM non-essential amino acids [NEAA], 1 mM sodium pyruvate, 5 mM HEPES [pH 7.3]). Following a 2 h incubation period, compounds (4 μl) were subsequently added to the cells at 10× concentrations in 5% DMSO and incubated under normal conditions for 30 min. To induce hypoxic conditions, 4 μl of a 2 mM deferoxamine (DFO) solution was added to the cells followed by 24 h incubation under standard assay conditions (as described). Control wells included wells containing only medium (no cells) and wells treated with 0.5% DMSO instead of compound.
Prior to the readout, the Substrate Loading Solution was prepared as described in the manufacturer's protocol and 10 μl added to each well. Following a further 2 h incubation period at room temperature and in the dark, fluorescence was measured at two wavelengths (blue channel: ex. 409 nm, em. 460 nm; green channel: ex. 409 nm, em. 530 nm) on a PerkinElmer Envision HTS. For the analysis, the average signal of the cell-free wells at 460 nm and 530 nm was first subtracted from the blue and green channel data, respectively. The blue/green emission ratios were then calculated for each well, dividing the background-corrected blue emission values by the background-corrected green emission values. IC50 values were determined from these ratios using GraphPad Prism (Prism 5, GraphPad software, Inc.).

Experiment [2] has as its system MCF-7 human breast adenocarcinoma cells; HRE-bla HCT116 cell line (colorectal carcinoma). The experiment in a line: Cell proliferation assay (ATPlite luminescence). It counts as cell-based. Conditions: Homo sapiens, ATPlite readout, cell line not given. As for the experimental part: MCF-7 human breast adenocarcinoma cells were obtained from ATCC (LGC Promochem). The CellSensor® HRE-bla HCT116 cell line (colorectal carcinoma) was obtained from Invitrogen.
Cells were grown under humidified 95% air, 5% CO2 at 37° C. in Dulbecco's modified Eagle's medium (DMEM: MCF-7) or McCoy's 5A medium (HRE-bla HCT116) supplemented with 10% fetal bovine serum (FBS), 100 U/ml penicillin and 100 μg/ml streptomycin, 2 mM L-glutamine, and blasticidin at 5 μg/ml as a selection marker (for the HRE-bla HCT116 cell line only).
Cell proliferation experiments were carried out in 96-well tissue culture plates with seeding of 2000 cells/well in 100 μl of the relevant medium. Cells were subsequently incubated under the conditions mentioned for 24 h prior to addition of compounds.
To determine the degree of inhibition of cell proliferation, cells were treated with ATPlite solution according to the manufacturer's instructions (PerkinElmer, ATPlite 1-step Luminescence ATP Detection Assay System) and luciferase readout measured on an Envision HTS multilabel plate reader (PerkinElmer) in luminescence mode according to established protocols. Raw data were imported into an ActivityBase database (IDBS, ID Business Solutions) and EC50 values calculated using the IDBS program ActivityBase XE.
Background: In ATP-based viability assays light output follows the ATP content of the culture.

The target in experiment [3] is T1, tubulin (from porcine brain) (Sus scrofa, UniProt P02550+P02554).
T1 construct: prepared in-house from porcine brain using a standard procedure involving cycles of polymerization/de-polymerization; from tissue; host or cells: porcine brain
T1 sequence (P02550 whole entry): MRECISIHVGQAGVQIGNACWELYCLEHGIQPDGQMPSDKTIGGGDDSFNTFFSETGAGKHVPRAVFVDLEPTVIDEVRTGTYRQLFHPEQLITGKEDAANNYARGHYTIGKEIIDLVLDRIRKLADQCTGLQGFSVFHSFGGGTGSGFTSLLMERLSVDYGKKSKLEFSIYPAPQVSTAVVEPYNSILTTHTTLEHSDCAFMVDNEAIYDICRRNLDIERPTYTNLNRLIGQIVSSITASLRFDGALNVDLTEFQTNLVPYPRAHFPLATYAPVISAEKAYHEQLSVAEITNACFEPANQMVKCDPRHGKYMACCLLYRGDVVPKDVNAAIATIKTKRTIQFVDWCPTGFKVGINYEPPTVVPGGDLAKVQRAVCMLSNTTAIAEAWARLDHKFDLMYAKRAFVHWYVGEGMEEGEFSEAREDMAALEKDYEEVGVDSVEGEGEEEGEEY
T1 sequence (P02554 whole entry): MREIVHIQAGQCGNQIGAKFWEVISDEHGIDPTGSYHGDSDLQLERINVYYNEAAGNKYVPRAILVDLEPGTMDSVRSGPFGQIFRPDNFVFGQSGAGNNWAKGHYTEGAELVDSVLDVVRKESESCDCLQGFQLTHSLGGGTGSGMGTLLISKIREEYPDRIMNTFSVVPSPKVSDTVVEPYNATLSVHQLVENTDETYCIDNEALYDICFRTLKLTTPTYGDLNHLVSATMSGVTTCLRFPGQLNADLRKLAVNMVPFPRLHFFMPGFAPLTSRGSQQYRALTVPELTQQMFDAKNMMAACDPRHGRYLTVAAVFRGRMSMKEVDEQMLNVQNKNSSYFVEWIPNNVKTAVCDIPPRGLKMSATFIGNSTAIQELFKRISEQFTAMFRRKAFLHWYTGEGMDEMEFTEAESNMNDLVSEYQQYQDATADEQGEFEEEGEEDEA
The experiment in a line: Inhibition of in vitro tubulin polymerization (OD 340 nm, 90 min). It counts as biochemical. Particulars: final absorbance at 90 min vs vehicle control, read-out: tubulin inhib. (at 10 μM). As for the experimental part:
To assess the degree of inhibition of in vitro tubulin polymerization, a tubulin solution (prepared in-house from porcine brain using a standard procedure involving cycles of polymerization/de-polymerization, (see Castoldi & Popov (2003) Protein Expr. Purif. 32(1): 83-88), was incubated with varying concentrations of compounds under polymerizing conditions and kinetic experiments performed to determine the amount of polymerization (as measured by changes in OD at 340 nm) taking place over a 90 min period.
Compound solutions were diluted in double-distilled water to yield final 10× solutions containing 5% DMSO. 5 μl solutions were then added to the wells on a 384-well clear-bottom plate (Corning #3711, Corning Inc.) in preparation for the addition of tubulin. The tubulin solution (19.6 mg/ml, in 80 mM K-PIPES [pH 6.8], 1 mM MgCl2, 1 mM EGTA) was re-suspended to a final concentration of 4 mg/ml with ice cold G-PEM buffer (80 mM PIPES [pH 6.8], 2 mM MgCl2, 0.5 mM EGTA, 10% glycerol, 1 mM GTP) and maintained on ice for at least 1 min. 50 μl was then added to the pre-dispensed compound solutions, the plate orbital shaken on a medium setting for 5s, and the first measurement begun immediately.
Experiments were carried out on a Safire^2 ™ monochromator (Tecan) preset to a stable temperature of 37° C.; the degree of polymerization was determined by measuring the absorbance of the solutions at 340 nm every minute over the 90 min cycle. Reported inhibition values were based on the final absorbance at 90 min and calculated with reference to a vehicle control (0.5% DMSO) using the minimum and maximum signals obtained for this sample.

Our source for the EC50 and inhibition values is patent publication US20120095012A1, “TOLUIDINE SULFONAMIDES AND THEIR USE” (Elara Pharmaceuticals GmbH, priority 2008, published 2012).

As for `CCc1ccc(S(=O)(=O)Nc2cc(-c3ccc(C#N)s3)ccc2C)s1` [Example 1, 5-Ethyl-thiophene-2-sulfonic acid [5-(5-cyano-thiophen-2-yl)-2-methyl-phenyl]-amide], the EC50 in experiment [1] and in experiment [2] was under 500 nM throughout. In addition, the inhibition at 10 µM in experiment [3] is 20 to 50%.

On to `COc1ccc(S(=O)(=O)Nc2cc(-c3ccc(C#N)s3)ccc2C)cn1` [Example 2, 6-Methoxy-pyridine-3-sulfonic acid [5-(5-cyano-thiophen-2-yl)-2-methyl-phenyl]-amide], for which the EC50 in experiment [1] and in experiment [2] was under 500 nM in each case. The inhibition at 10 µM in experiment [3] was under 20%.

For the molecule `Cc1ccc(S(=O)(=O)Nc2cc(-c3ccc(C#N)s3)ccc2C)s1` [Example 3, 5-Methyl-thiophene-2-sulfonic acid [5-(5-cyano-thiophen-2-yl)-2-methyl-phenyl]-amide], the EC50 (as a rule, the midpoint of the concentration-response curve) in experiment [2] is under 500 nM. Further, in experiment [3], the inhibition at 10 µM is under 20%.
